Measured values published in the supplement of paper PMC6045584.

Legend:
Test in all cases: area under dose-response curve of surviving fraction (unscaled, Aref=0) (surviving fraction x log10(nM)); higher = more resistant
Conditions in all cases: exposure time: 5 days; dose range 0.5-1000 nM
XAV-939 = compound: Oc1nc(-c2ccc(C(F)(F)F)cc2)nc2c1CSCC2 [XAV-939]
Procedure, shortened: (§1)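 Tumour cell lines in 384-well plates were exposed to eight inhibitor concentrations, from 0.5 to 1000 nM, for five days, and viability was read by CellTiter-Glo luminescence in three screens per line. Signals were normalised to DMSO-only wells, and 3-parameter logistic regression in the drc R package fitted dose-response survival curves to the surviving fractions. Area under the curve is given as the unscaled activity area. That area is taken over log10 dose with Aref = 0.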

[1] = compound: CNCc1ccc(-c2[nH]c3cc(F)cc4c3c2CCNC4=O)cc1
Procedure, shortened: as §1

[2] = compound: CCn1c(C(=O)N(C2CC2)C2CC2)cc2c3c(ncn3C)c(Nc3cc(C)n(C)n3)nc21
Procedure, shortened: as §1

OLAPARIB = compound: O=C(c1cc(Cc2n[nH]c(=O)c3ccccc23)ccc1F)N1CCN(C(=O)C2CC2)CC1 [OLAPARIB]
Procedure, shortened: as §1

FORETINIB = compound: COc1cc2c(Oc3ccc(NC(=O)C4(C(=O)Nc5ccc(F)cc5)CC4)cc3F)ccnc2cc1OCCCN1CCOCC1 [FORETINIB]
Procedure, shortened: as §1

ABIRATERONE = compound: C[C@]12CC[C@H](O)CC1=CC[C@@H]1[C@@H]2CC[C@]2(C)C(c3cccnc3)=CC[C@@H]12 [ABIRATERONE]
Procedure, shortened: as §1

TEMOZOLOMIDE = compound: Cn1nnc2c(C(N)=O)ncn2c1=O [TEMOZOLOMIDE]
Procedure, shortened: as §1

SOTRASTAURIN/AEB071 = compound: CN1CCN(c2nc(C3=C(c4c[nH]c5ccccc45)C(=O)NC3=O)c3ccccc3n2)CC1 [SOTRASTAURIN/AEB071]
Procedure, shortened: as §1

[3] = compound: C[C@@H](Oc1cc(-c2cnn(C3CCNCC3)c2)cnc1N)c1c(Cl)ccc(F)c1Cl
Procedure, shortened: as §1

CRIZOTINIB = compound: C[C@@H](Oc1cc(-c2cnn(C3CCNCC3)c2)cnc1N)c1c(Cl)ccc(F)c1Cl [CRIZOTINIB]
Procedure, shortened: as §1

MLN-4924 = compound: NS(=O)(=O)OC[C@@H]1C[C@@H](n2ccc3c(N[C@H]4CCc5ccccc54)ncnc32)C[C@@H]1O [MLN-4924]
Procedure, shortened: as §1

SORAFENIB = compound: CNC(=O)c1cc(Oc2ccc(NC(=O)Nc3ccc(Cl)c(C(F)(F)F)c3)cc2)ccn1 [SORAFENIB]
Procedure, shortened: as §1

[4] = compound: COc1cc2ncnc(Nc3ccc(F)c(Cl)c3)c2cc1NC(=O)/C=C/CN1CCCCC1
Procedure, shortened: as §1

DASATINIB = compound: Cc1nc(Nc2ncc(C(=O)Nc3c(C)cccc3Cl)s2)cc(N2CCN(CCO)CC2)n1 [DASATINIB]
Procedure, shortened: as §1

| Test System | area under dose-response curve (XAV-939) | area under dose-response curve [1] | area under dose-response curve [2] | area under dose-response curve (OLAPARIB) | area under dose-response curve (FORETINIB) | area under dose-response curve (ABIRATERONE) | area under dose-response curve (TEMOZOLOMIDE) | area under dose-response curve (SOTRASTAURIN/AEB071) | area under dose-response curve [3] | area under dose-response curve (CRIZOTINIB) | area under dose-response curve (MLN-4924) | area under dose-response curve (SORAFENIB) | area under dose-response curve [4] | area under dose-response curve (DASATINIB) |
| --- | --- | --- | --- | --- | --- | --- | --- | --- | --- | --- | --- | --- | --- | --- |
| 22RV1 PROSTATE | 3.34 | 3.57 | 3.4 | 3.41 | 3.05 | 3.62 | 3.54 | 3.61 | 3 | 3.17 | 2.3 | 3.42 |  |  |
| A549 LUNG | 3.48 | 3.56 | 3.2 | 3.48 | 3.13 | 3.53 | 3.43 |  | 3.25 | 3.27 | 3.14 | 3.44 | 3.32 | 2.72 |
| CADOES1 SOFT TISSUE | 2.98 | 2.97 | 3.08 | 3.04 | 2.56 |  | 3.11 | 3.21 | 2.94 | 3.05 | 2.57 | 2.92 | 3 | 3.34 |
| CAL51 BREAST | 3.24 | 2.78 | 3.3 | 2.99 | 2.75 | 3.32 | 3.41 | 3.16 | 2.77 | 2.87 | 2.56 | 3.36 | 3.29 | 1.95 |
| CAL120 BREAST | 3.24 | 3.19 | 3.06 | 2.89 | 3.06 | 3.35 | 3.22 | 3.28 | 2.89 | 3.24 | 2.22 | 3.19 | 3.14 | 1.98 |
| CASKI CERVIX | 3.25 | 3.04 | 3.21 | 2.98 | 2.87 |  | 3.19 | 3.1 | 2.58 | 2.83 | 2.18 |  | 1.19 | 1.2 |
| COLO320DM LARGE INTESTINE | 3.19 | 3.27 | 3.77 | 3.46 | 3.16 | 3.36 | 3.45 | 3.45 | 3.01 | 3.21 | 3.14 | 3.67 | 3.2 | 3.52 |
| H23 LUNG | 2.94 | 3.63 | 3.2 | 3.67 | 3.19 | 3.65 | 3.33 | 3.58 | 3.24 | 3.48 | 2.48 | 3.89 | 1.51 | 2.14 |
| HCC78 LUNG | 2.69 | 3.18 | 2.67 | 3.38 | 1.78 | 3.32 | 2.97 | 3.62 | 2.08 | 2.26 | 1.64 | 3.05 | 2.51 | 1.88 |
| HELA CERVIX | 3.57 | 3.62 | 3.32 | 3.66 | 3.06 | 3.73 | 3.6 | 3.56 | 3.13 | 3.42 | 3.35 | 3.38 | 3.73 | 3.16 |
| HOS BONE | 3.4 | 3.35 | 3.32 | 3.37 | 3.06 | 3.5 | 3.42 | 3.38 | 3.05 | 3.13 | 2.11 | 3.42 | 3.27 | 2.29 |
| HOSMNG BONE | 3.14 | 3.01 | 3.39 | 3.29 | 2.05 | 3.41 | 3 | 3.24 | 2.33 | 2.38 | 3.01 |  | 3.18 | 2.21 |
| HSSYII SYNOVIAL | 3.04 | 2.44 | 3.02 | 2.67 | 2.59 | 3.22 | 3.23 | 2.99 | 2.49 | 2.85 | 1.85 | 3.17 | 3 | 2.17 |
| HT1080 SOFT TISSUE | 2.94 | 3.02 | 3.3 | 2.92 | 3.13 | 3.37 | 3.41 | 3.53 | 3.25 | 3.28 | 2.52 | 3.4 | 3.22 | 2.37 |
| JIMT1 BREAST | 3.26 | 3.03 | 3.27 | 3.01 | 3.01 | 3.3 | 3.4 | 3.24 | 3.01 | 3.18 | 3.19 | 3.34 | 2.5 | 1.66 |
| KPD BONE | 3.17 | 3.18 | 3.28 | 3.12 | 3.08 | 3.4 | 3.35 | 3.41 | 2.95 | 3.08 | 2.61 | 3.2 | 3.13 | 2.1 |
| LM7 BONE | 3.45 | 2.67 | 3.31 | 2.84 | 3.1 | 3.33 | 3.38 | 3.08 | 2.6 | 3.05 | 2.09 | 3.39 | 2.98 | 1.58 |
| LNCAP PROSTATE | 2.79 |  | 2.93 | 3.27 | 2.93 | 2.98 | 3.08 | 3.71 | 2.82 | 2.91 | 1.35 |  | 2.92 | 2.62 |

| Test System | area under dose-response curve (XAV-939) | area under dose-response curve [1] | area under dose-response curve [2] | area under dose-response curve (OLAPARIB) | area under dose-response curve (FORETINIB) | area under dose-response curve (ABIRATERONE) | area under dose-response curve (TEMOZOLOMIDE) | area under dose-response curve (SOTRASTAURIN/AEB071) | area under dose-response curve [3] | area under dose-response curve (CRIZOTINIB) | area under dose-response curve (MLN-4924) | area under dose-response curve (SORAFENIB) | area under dose-response curve [4] | area under dose-response curve (DASATINIB) |
| --- | --- | --- | --- | --- | --- | --- | --- | --- | --- | --- | --- | --- | --- | --- |
| MCF7 BREAST | 3.19 | 3.04 | 2.83 | 3.07 | 2.96 | 3.3 | 3.08 | 3.11 | 2.71 | 3.04 | 2.24 | 2.97 | 3.16 | 2.56 |
| MDAMB157 BREAST | 3.08 | 3.13 | 2.94 | 3.21 | 2.94 | 3.17 | 3.27 | 3.23 | 2.84 | 3.17 | 2.69 |  | 3.08 | 1.89 |
| MDAMB231 BREAST | 2.95 | 3.03 | 3.25 | 3.09 | 2.91 | 3.29 | 3.27 | 3.34 | 2.81 | 2.93 | 2.4 | 3.13 | 3.08 | 1.44 |
| MDAMB361 BREAST | 3.04 | 2.1 | 2.83 | 2.26 | 2.98 |  | 3.06 | 2.21 | 2.88 | 2.86 | 2.48 | 2.79 | 2.58 | 2.45 |
| MDAMB436 BREAST | 3.05 | 2.37 | 2.67 | 2.31 | 3.16 | 3.11 | 3.32 | 2.8 | 2.84 | 3.4 | 2.24 | 3.22 | 3.06 | 2.65 |
| MFM223 BREAST | 3.24 | 2.94 | 3.58 | 2.99 | 3.08 | 3.88 | 4.05 | 2.95 | 2.92 | 3.69 | 2.82 | 3.79 | 3.27 | 2.52 |
| MHM BONE | 3.28 | 3.49 | 3.28 | 3.42 | 3.2 | 3.43 | 3.31 | 3.52 | 3.21 | 3.27 |  | 3.47 | 3.28 | 2.44 |
| OS25HAL BONE | 3.23 |  | 3.23 | 3.36 | 2.85 | 3.44 | 3.52 | 3.43 | 3.14 | 3.21 | 2.39 | 3.2 | 3.34 | 2.28 |
| OSHN BONE | 3.53 | 3.21 | 3.38 | 3.28 | 3.09 | 3.67 | 3.58 | 3.32 | 3.17 | 3.28 | 2.48 | 3.51 | 3.52 | 2.81 |
| S68 BREAST | 3.19 | 2.67 |  | 2.85 | 2.65 | 3.31 | 3.53 | 3.45 | 2.76 | 2.72 | 2.21 | 3.49 | 2.49 | 1.44 |
| SG43 HEADNECK | 2.88 | 3.46 | 2.97 | 3.28 | 2.45 | 3.37 | 2.97 | 3.54 | 2.88 | 2.8 |  | 4.26 | 1.38 | 1.64 |
| SNU475 LIVER | 3.07 | 3.13 | 3.18 | 3.11 | 3.18 | 3.42 | 3.4 | 3.15 | 2.77 | 3.26 | 3.13 | 3.6 | 2.94 | 1.64 |
| SUM149 BREAST | 2.66 | 2.39 | 3.48 | 2.46 | 2.82 | 3.16 | 3.57 | 2.96 | 2.99 | 3.15 | 2.38 | 3.9 | 2.13 | 1.49 |
| SYO1 SYNOVIAL | 3.01 | 2.25 | 3.06 | 2.48 | 2.43 | 3.32 | 3.18 | 3.01 | 2.44 | 2.71 | 2.1 | 3.06 | 3.02 | 1.7 |
| T47D BREAST | 3.54 | 3.24 | 3.36 | 3.11 | 3.43 | 3.62 | 3.49 | 3.44 | 3.15 | 3.51 | 2.34 | 3.6 | 3.49 | 3.08 |
| U2OS BONE | 3.25 | 3.17 | 3.44 | 3.26 | 3 | 3.6 | 3.39 | 3.36 | 2.88 | 3.06 | 2.83 | 3.5 | 3.24 | 2.63 |
| VCAP PROSTATE | 3.13 | 3.23 | 3.54 | 3.59 | 3.06 | 3.72 | 3.44 | 3.27 | 2.88 | 3.04 | 2.21 | 3.73 | 3.12 | 3.15 |
